Experimental data as given in US11639364B2, “Potent sialyltransferase inhibitors” (STICHTING RADBOUD UNIVERSITEIT, priority 2018, dated 2023).
Read-outs that look alike come from different tables or passages of the source.

Experiments:
[1] = system: B16-F10 cells; test: Inhibition of cell surface sialylation, lectin staining and flow cytometry, B16-F10 cells; type: cell-based, Mouse; conditions: Mus musculus, 72 h, three days
Method: (§1) Mouse B16-F10 melanoma cells (ATCC CRL-6475) were cultured in Minimum Essential Medium (MEM) (Gibco, Invitrogen, Carlsbad, Calif.) containing 5% fetal bovine serum (FBS) (Greiner Bio-one, Frickenhausen, Germany), 1% MEM non-essential amino acids (Gibco), 0.15% sodium bicarbonate (Gibco), 1 mM sodium pyruvate (Gibco), 1.5% MEM vitamins (Gibco), 1% antibiotic-antimycotic solution (50 U/ml penicillin, 50 μg/ml streptomycin and 125 ng/ml amphotericin B) (Gibco). The murine 9464D neuroblastoma cell line was cultured in Dulbecco's Modified Eagle's Medium (DMEM, Glutamax, Gibco) with 10% FBS, 1% non-essential amino acids, 50 μM 2-mercaptoethanol (Sigma-Aldrich) and 1% antibiotic-antimycotic solution (Kroesen et al., 2014, DOI: 10.1002/ijc.28463, Stauffer et al., 2012, DOI: 10.3109/07357907.2012.664670). The murine EL4 T lymphocyte cell line (ATCC TIB-39) was cultured in Iscove's Modified Dulbecco's Medium (IMDM, Gibco) supplemented with 5% FBS and 1% antibiotic-antimycotic solution. Human HEK293 (ATCC CRL-1573) kidney cells and human HeLa (ATCC CCL-2) cervical cancer cells were cultured in DMEM containing 10% FBS, 2 mM glutamine (Lonza, Walkersville, Md.) and 1% antibiotic-antimycotic solution. Human monocytic THP-1 cells (TIB-202, ATCC) were cultured in RRMI-1640 medium (Gibco) supplemented with 10% FBS, 2 mM glutamine and 1% antibiotic-antimycotic solution. All cell lines were cultured in a humidified 5% CO2 incubator at 37° C.
(§2) To assess the effect of the synthesized compounds on cell surface sialylation, different murine and human cell lines were cultured for three days in the presence of 0-204.8 μM amide and carbamate fluorine sialic acids. Cells treated with an equal final percentage of DMSO were used as control and all cells were subjected to lectin staining and flow cytometry as described below. To investigate the longevity of the effect of the fluorine sialic acids on cell surface sialylation, B16-F10 cells treated with 25.6 μM or 51.2 μM were thoroughly washed with medium to remove fluorine sialic acids from the culture and reseeded. During a period of six days, cells were harvested every day and sialylation was assessed by flow cytometry.
(§3) For the lectin staining, all cells were harvested and washed with 1× carbo-free blocking solution (Vector Laboratories, Inc., Burlingame, Calif., USA) and stained for 45 minutes at 4° C. in 1× carbo-free blocking solution containing 1 mM CaCl2), 1 mM MgCl2 and biotinylated MALII (5 μg/ml), SNA-1 (1 μg/ml) or PNA (5 μg/ml) all obtained from Vector Laboratories Inc. MALII recognizes α2,3-linked sialic acids, SNA-1 recognizes α2,6-linked sialic acids and PNA binds to terminal 3-galactose. In addition, B16-F10 cells were stained with 2 μg/ml biotinylated AAL (α-linked Fucose), LCA (α-linked Mannose), PHA-L (complex glycans), GSL-I (α-linked Galactose and N-Acetylgalactosamine), WGA (chitobiose), SJA (β-linked Galactose and N-Acetylgalactosamine) and PSA (Glucose and Mannose) purchased from Vector Laboratories Inc. Next, the cells were washed thrice in PBA (1×PBS, 1% BSA, and 0.02% sodium azide) and stained for 10 minutes at 4° C. with 2 μg/ml streptavidin-phycoerythrin (PE) (BD Pharmingen, Franklin Lakes, N.J., USA). The cells were washed thrice again with PBA and fluorescence was assessed using a CyAn ADP flow cytometer (BD Biosciences, San Jose, Calif.) followed by analysis with FlowJo software (Tree Star Inc., Ashland, Oreg.). Untreated cells stained with streptavidin-PE only served as background fluorescence control. The percentages lectin binding was calculated by normalizing the mean fluorescence intensity values from the treated cells with the DMSO controls.
(§4) IC50 values and statistics were calculated using Prism 5.03 (GraphPad Software, Inc., La Jolla, Calif.). Statistical significance between the different groups was calculated using one-way ANOVA followed by Bonferroni post-hoc testing and P-values<0.05 were considered significant (p<0.05 *, p<0.01 **, p<0.001 ***). […]

[2] = system: THP-1 cells; test: Inhibition of cell surface sialylation, lectin staining and flow cytometry, THP-1 cells; type: cell-based, Human; conditions: Homo sapiens, 72 h, three days
Method: as §1, §2, §3, §4

[3] = system: HEK293 cells; test: Inhibition of cell surface sialylation, lectin staining and flow cytometry, HEK293 cells; type: cell-based, Human; conditions: Homo sapiens, 72 h, three days
Method: as §1, §2, §3, §4

[4] = system: HeLa cells; test: Inhibition of cell surface sialylation, lectin staining and flow cytometry, HeLa cells; type: cell-based, human; conditions: Homo sapiens, 72 h, three days
Method: as §1, §2, §3, §4

[5] = system: 9464D cells; test: Inhibition of cell surface sialylation, lectin staining and flow cytometry, 9464D cells; type: cell-based, murine; conditions: Mus musculus, 72 h, three days
Method: as §1, §2, §3, §4

[6] = system: EL4 cells; test: Inhibition of cell surface sialylation, lectin staining and flow cytometry, EL4 cells; type: cell-based, murine; conditions: Mus musculus, 72 h, three days
Method: as §1, §2, §3, §4

[7] = MALII lectin binding, read-out: α2,3-Sia IC50
[8] = SNA-I lectin binding, read-out: α2,6-Sia IC50

SMILES | IC50 [1, 7] | IC50 [1, 8] | IC50 [2, 7] | IC50 [2, 8] | IC50 [3, 7] | IC50 [3, 8] | IC50 [4, 7] | IC50 [4, 8] | IC50 [5, 7] | IC50 [5, 8] | IC50 [6, 7] | IC50 [6, 8]
COC(=O)C1(OC(C)=O)OC([C@H](OC(C)=O)[C@@H](COC(C)=O)OC(C)=O)[C@H](NC(=O)C(F)(F)F)C(OC(C)=O)C1F (stereo partly drawn) [SiaFTFA, Methyl 5-(trifluoroacetamido)-2,4,7,8,9-penta-O-acetyl-3,5-dideoxy-3-fluoro-D-glycero-β-galacto-non-2-ulopyranosonate, reference compound] | 14.3 ± 0.77 µM | 33.3 ± 2.63 µM | 3.3 ± 1.26 µM | 7.19 ± 3.6 µM | 42.8 ± 2.38 µM | 41.4 ± 10.4 µM | 25.5 ± 2.61 µM | 33.4 ± 4.38 µM | 46.5 ± 4.41 µM | > 102 µM | > 102 µM | > 102 µM
C#CCCC(=O)N[C@@H]1C(OC(C)=O)C(F)C(OC(C)=O)(C(=O)OC)OC1[C@H](OC(C)=O)[C@@H](COC(C)=O)OC(C)=O (stereo partly drawn) [SiaFPen, Methyl 5-(4-pentynacetamido)-2,4,7,8,9-penta-O-acetyl-3,5-dideoxy-3-fluoro-D-glycero-β-galacto-non-2-ulopyranosonate, reference compound] | 40.6 ± 5.67 µM | 52.5 ± 4.31 µM | 10.4 ± 2.14 µM | 12.6 ± 3.51 µM | 26.2 ± 2.37 µM | 44.7 ± 4.33 µM | 62.3 ± 3.91 µM | 51.2 ± 6.06 µM | > 102 µM | > 102 µM | > 102 µM | > 102 µM
COCCOC(=O)N[C@@H]1C(OC(C)=O)C(F)C(OC(C)=O)(C(=O)OC)OC1[C@H](OC(C)=O)[C@@H](COC(C)=O)OC(C)=O (stereo partly drawn) [SiaFMox, Methyl 5-(2-methoxy-ethylcarbamado)-2,4,7,8,9-penta-O-acetyl-3,5-dideoxy-3-fluoro-D-glycero-R-galacto-non-2-ulopyranosonate] | 25.5 ± 2.53 µM | 32.4 ± 1.38 µM | – | – | – | – | – | – | – | – | – | –
COC(=O)C1(OC(C)=O)OC([C@H](OC(C)=O)[C@@H](COC(C)=O)OC(C)=O)[C@H](NC(=O)CCl)C(OC(C)=O)C1F (stereo partly drawn) [SiaFAcC, Methyl 5-(chloroacetamido)-2,4,7,8,9-penta-O-acetyl-3,5-dideoxy-3-fluoro-D-glycero-β-galacto-non-2-ulopyranosonate, reference compound] | 18 ± 2.12 µM | – | – | – | – | – | – | – | – | – | – | –
CCCCOC(=O)N[C@@H]1C(OC(C)=O)C(F)C(OC(C)=O)(C(=O)OC)OC1[C@H](OC(C)=O)[C@@H](COC(C)=O)OC(C)=O (stereo partly drawn) [SiaFnBu, Methyl 5-(butylcarbamado)-2,4,7,8,9-penta-O-acetyl-3,5-dideoxy-3-fluoro-D-glycero-β-galacto-non-2-ulopyranosonate] | 7.45 ± 0.92 µM | 7.91 ± 1.95 µM | – | – | – | – | – | – | – | – | – | –
COC(=O)C1(OC(C)=O)OC([C@H](OC(C)=O)[C@@H](COC(C)=O)OC(C)=O)[C@H](NC(=O)OCc2ccccc2)C(OC(C)=O)C1F (stereo partly drawn) [SiaFCbz, Methyl 5-(benzylcarbamado)-2,4,7,8,9-penta-O-acetyl-3,5-dideoxy-3-fluoro-D-glycero-β-galacto-non-2-ulopyranosonate, reference compound] | 14.5 ± 3.51 µM | – | – | – | – | – | – | – | – | – | – | –
COC(=O)C1(OC(C)=O)OC([C@H](OC(C)=O)[C@@H](COC(C)=O)OC(C)=O)[C@H](NC(=O)OCC(C)C)C(OC(C)=O)C1F (stereo partly drawn) [SiaFiBu, Methyl 5-(isobutylcarbamado)-2,4,7,8,9-penta-O-acetyl-3,5-dideoxy-3-fluoro-D-glycero-β-galacto-non-2-ulopyranosonate] | 3.33 ± 0.12 µM | 15.1 ± 3.7 µM | 0.5 ± 1.34 µM | 0.62 ± 1.77 µM | 11.4 ± 4.73 µM | 9.61 ± 4.83 µM | 5.15 ± 2.4 µM | 4.32 ± 1.82 µM | 24.4 ± 2.95 µM | 36.1 ± 6.4 µM | 51.8 ± 18.7 µM | 51.1 ± 8.97 µM
C=CCOC(=O)N[C@@H]1C(OC(C)=O)C(F)C(OC(C)=O)(C(=O)OC)OC1[C@H](OC(C)=O)[C@@H](COC(C)=O)OC(C)=O (stereo partly drawn) [SiaFAII, 5-(alloxycarbamado)-2,4,7,8,9-penta-O-acetyl-3,5-dideoxy-3-fluoro-D-glycero-β-galacto-non-2-ulopyranosonate] | 1.39 ± 0.21 µM | 2.87 ± 0.8 µM | 0.41 ± 0.73 µM | 0.38 µM | 1.83 ± 1.19 µM | 1.68 ± 3.2 µM | 1.77 ± 1.78 µM | 2.04 ± 1.4 µM | 6.91 ± 3.56 µM | 9.64 ± 3.93 µM | 39.9 ± 4.95 µM | 50.9 ± 6.44 µM
C#CCOC(=O)N[C@@H]1C(OC(C)=O)C(F)C(OC(C)=O)(C(=O)OC)OC1[C@H](OC(C)=O)[C@@H](COC(C)=O)OC(C)=O (stereo partly drawn) [SiaFPoc, Methyl 5-(propargylcarbamado)-2,4,7,8,9-penta-O-acetyl-3,5-dideoxy-3-fluoro-D-glycero-β-galacto-non-2-ulopyranosonate] | 0.72 ± 0.2 µM | 2.59 ± 0.07 µM | 0.42 ± 0.9 µM | 0.44 µM | 1.19 ± 1.47 µM | 5.42 ± 1.4 µM | 1.65 ± 2.27 µM | 1.37 ± 0.81 µM | 10.7 ± 2.85 µM | 40.2 ± 6.56 µM | 51 ± 8.62 µM | 51.6 ± 2.62 µM
COC(=O)C1(OC(C)=O)OC([C@H](OC(C)=O)[C@@H](COC(C)=O)OC(C)=O)[C@H](NC(=O)OC(C)(C)C)C(OC(C)=O)C1F (stereo partly drawn) [SiaFBoc, Methyl 5-(tert-butoxycarbamado)-2,4,7,8,9-penta-O-acetyl-3,5-dideoxy-3-fluoro-D-glycero-β-galacto-non-2-ulopyranosonate] | 3.48 ± 0.56 µM | 8.21 ± 0.67 µM | 1.28 ± 1.36 µM | 1.72 ± 2.3 µM | 10.4 ± 4.76 µM | 28 ± 2.57 µM | 12.8 ± 1.61 µM | 20.6 ± 1.95 µM | 36.5 ± 3.81 µM | > 102 µM | 54.6 ± 3.22 µM | 50.3 ± 3.99 µM
